Earlier results, collected in patent US8206772B2, “Structured lipid compositions and methods of formulation thereof” (Kraft Foods Global Brands LLC, priority 2007, dated 2012).

What was measured:
[1] = infants fed enriched milk
[2] = rats, 5 percent and 10 percent of the diet

SMILES	fat retained per day [1]	nutritional value / toxicity when fed [2]
CCCC(=O)OCC(COC(=O)CCC)OC(=O)CCC [tributyrin]	90.1 to 90.2%	nutritious
CC(=O)OCC(COC(C)=O)OC(C)=O [triacetin]	–	nutritious
CC(C)CC(=O)OCC(COC(=O)CC(C)C)OC(=O)CC(C)C [triisovalerin]	–	toxic
